Test results taken from patent EP0326640B1, “(1R,5S,6S)-2-substituted thio-6 (R)-1-hydroxyethyl -1-methyl-carbapenem - carboxylic acid derivatives” (LEDERLE (JAPAN) LTD., priority 1987, dated 1989).
≈ marks a conversion by molar mass, not a printed value.

What was measured:
[1] = tested on: Citrobactor freundii GN 346; test: Antibacterial activity against clinically isolated β-lactamase (cephalosporinase) producing strains (MIC); assay type: cell-based; conditions: cephalosporinase producing strain, SDA, 18 to 20 hours
Procedure: (§1) The antibacterial activities against clinically isolated β-lactamase producing strains were tested by the agar plate dilution method in accordance with the standard method of The Japanese Chemotherapy Society [Chemotherapy, Vol. 29, 76-79 (1981)]. A solution of a cephalosporinase producing strain stored by Episome Research Institute, prepared by incubating the strain in a sensitivity test broth (STB; product of Nissui K. K.) for 18 hours, was diluted with a fresh STB solution so that the solution contained 10⁶ cells per milliliter. The diluted solution was then inoculated as spots in a microplanter on a sensitivity disk agar-N (SDA; product of Nissui K. K.) containing a test compound. The disk agar was then incubated for 18 to 20 hours. The minimum inhibitory concentration was determined as a minimum concentration in which the test microorganism no longer grew after a 18 to 20-hour incubation.

[2] = tested on: Pseudomonas aeruginosa GN 10367; test: as above; assay type: cell-based; conditions: Pseudomonas aeruginosa, GN10367, Pseudomonas aeruginosa GN 10367; cephalosporinase producing strain, SDA, 18 to 20 hours
Procedure: as §1

[3] = tested on: Pseudomonas aeruginosa GN 10362; test: as above; assay type: cell-based; conditions: GN10362, cephalosporinase producing strain, SDA, 18 to 20 hours, read-out: MIC
Procedure: as §1

[4] = tested on: Enterobacter cloacae GN 7467; test: as above; assay type: cell-based; conditions: GN7467; Enterobacter cloacae GN 7467; cephalosporinase producing strain, SDA, 18 to 20 hours; read-out: MIC
Procedure: as §1

Serratia marcescens L-82 = test: as above; assay type: cell-based; conditions: L82, cephalosporinase producing strain, SDA, 18 to 20 hours, read-out: MIC
Procedure: as §1

[5] = tested on: Pseudomonas cepacia GN 11164; test: as above; assay type: cell-based; conditions: Burkholderia cepacia, GN11164, cephalosporinase producing strain, SDA, 18 to 20 hours, read-out: MIC
Procedure: as §1

[6] = tested on: Citrobactor freundii GN 7391; test: as above; assay type: cell-based; conditions: cephalosporinase producing strain, SDA, 18 to 20 hours
Procedure: as §1

Serratia marcescens L-65 = test: as above; assay type: cell-based; conditions: Serratia marcescens, L65, Serratia marcescens L-65; cephalosporinase producing strain, SDA, 18 to 20 hours; read-out: MIC
Procedure: as §1

[7] = tested on: Providencia rettgeri GN 5284; test: as above; assay type: cell-based; conditions: GN5284, cephalosporinase producing strain, SDA, 18 to 20 hours, read-out: MIC
Procedure: as §1

[8] = tested on: Escherichia coli No. 1501; test: as above; assay type: cell-based; conditions: cephalosporinase producing strain, SDA, 18 to 20 hours, read-out: MIC
Procedure: as §1

Proteus morganii GN 5375 = test: as above; assay type: cell-based; conditions: Morganella morganii, GN5375, cephalosporinase producing strain, SDA, 18 to 20 hours, read-out: MIC
Procedure: as §1

[9] = target: T1, Swine Kidney Dehydropeptidase-I (DHP-I) (Sus scrofa, UniProt P22412); test: Stability of test compounds against DHP-I by HPLC; assay type: in vitro ADME; conditions: 37°C, Substrate Concentration: 100 μM
T1 construct: made soluble by treatment with butanol and purified by the ammonium sulfate fraction method, thereby producing DHP-I enzyme from a 75% ammonium sulfate fraction; from tissue; host or cells: swine kidney
T1 sequence (P22412 17-384): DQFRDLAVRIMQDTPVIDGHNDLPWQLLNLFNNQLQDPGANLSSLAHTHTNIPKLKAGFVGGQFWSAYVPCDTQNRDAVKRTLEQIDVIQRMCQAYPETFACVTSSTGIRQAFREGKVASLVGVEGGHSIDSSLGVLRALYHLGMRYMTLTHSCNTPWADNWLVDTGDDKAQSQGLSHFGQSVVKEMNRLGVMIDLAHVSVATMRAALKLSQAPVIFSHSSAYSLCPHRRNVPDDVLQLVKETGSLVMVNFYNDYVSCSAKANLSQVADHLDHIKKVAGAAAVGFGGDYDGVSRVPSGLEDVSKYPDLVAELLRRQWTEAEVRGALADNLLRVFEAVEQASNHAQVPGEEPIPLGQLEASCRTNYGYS
Procedure: The swine kidney (8 kg) was homogenized and the enzyme protein was allowed to precipitate. After a connective lipid was removed with acetone, the resultant material was made soluble by treatment with butanol and purified by the ammonium sulfate fraction method, thereby producing DHP-I enzyme from a 75% ammonium sulfate fraction. The DHP-I enzyme was then adjusted to give an enzyme concentration of 25 mg/10 ml (phosphate buffer, pH 7.1), and divided into 1 ml portions. The portions were frozen and stored at -40°C or less until use. Crystalline compound (20) obtained in Example 11 and amorphous compound (14) obtained in Example 5 below were used as a test compound. The test compound was adjusted in situ to give a concentration of 117 µM with a 50 mM sodium phosphate buffer solution (pH =7.1). Glycyl dehydrophenylalanine (Gl-dh-Ph) and imipenem were employed as control compounds, and they were adjusted in situ each to give a concentration of 117 µM with the same sodium phosphate buffer solution. The test compound according to the present invention and the control compounds were treated in substantially the same manner as (1) above. The incubation, however, was conducted at 37°C for 4.5 hours or for 24 hours. The degree of hydrolysis of the compounds each after the test periods was measured by the HPLC method.

[10] = tested on: P. aeruginosa resistant strains; test: Sensitivity test against clinical isolates, agar plate dilution method; assay type: cell-based; conditions: 54 strains of P. aeruginosa having an anti-Pseudomonas resistance
Procedure: The test procedures were based on the agar plate dilution method in accordance with the standard method of The Japanese Chemotherapy Society. The minimum inhibitory concentration (MIC) was determined in substantially the same manner as the test procedures II above using the 54 strains of P. aeruginosa having an anti-Pseudomonas resistance.

Structure (SMILES) | MIC [1] | MIC [2] | MIC [3] | MIC [4] | MIC (Serratia marcescens L-82) | MIC [5] | MIC [6] | MIC (Serratia marcescens L-65) | MIC [7] | MIC [8] | MIC (Proteus morganii GN 5375) | DEGREES OF HYDROLYSIS BY DHP-I ([9]; 4.5 hours) | DEGREES OF HYDROLYSIS BY DHP-I ([9]; 24 hours) | concentration to inhibit the growth of all the test microorganisms [10] | percent of strains inhibited at 6.25 µg/mL ([10]; concentration of 6.25 µg/ml, read-out: test microorganisms whose growth is inhibited)
C[C@@H](O)[C@H]1C(=O)N2C(C(=O)[O-])=C(SCc3cs[n+](C)n3)[C@H](C)[C@H]12 [Amorphous Compd. (14), (1R,5S,6S)-2-[(2-methyl-1,2,3-thiadiazolium-4-yl)methyl]thio-6-[(R)-1-hydroxyethyl]-1-methyl-carbapenem-3-carboxylate] | 0.78 µg/mL (≈ 2.19 µM) | 1.56 µg/mL (≈ 4.39 µM) | 0.78 µg/mL (≈ 2.19 µM) | 3.13 µg/mL (≈ 8.81 µM) | 0.2 µg/mL (≈ 0.563 µM) | 0.39 µg/mL (≈ 1.1 µM) | 1.56 µg/mL (≈ 4.39 µM) | 0.78 µg/mL (≈ 2.19 µM) | 0.39 µg/mL (≈ 1.1 µM) | 0.05 µg/mL (≈ 0.141 µM) | 3.13 µg/mL (≈ 8.81 µM) | – | – | – | –
C[C@@H](O)[C@H]1C(=O)N2C(C(=O)O)=C(SCCN=CN)C[C@H]12 [Imipenem, imipenem] | 0.39 µg/mL (≈ 1.3 µM) | 1.56 µg/mL (≈ 5.21 µM) | 0.78 µg/mL (≈ 2.61 µM) | 0.78 µg/mL (≈ 2.61 µM) | 0.2 µg/mL (≈ 0.668 µM) | 3.13 µg/mL (≈ 10.5 µM) | 0.78 µg/mL (≈ 2.61 µM) | 0.39 µg/mL (≈ 1.3 µM) | 0.39 µg/mL (≈ 1.3 µM) | 0.1 µg/mL (≈ 0.334 µM) | 3.13 µg/mL (≈ 10.5 µM) | 77.6 µM | * After 24 hours at 37°C, it has been found that most or all imipenem has been decomposed and nothing remained was detected. | 12.5 µg/mL | ~98%
